The target of one assay is Genome polyprotein (dengue virus type 2, UniProt P29990). The assay is described as follows: Dengue-2 NS5 methyltransferase inhibitors, primary screen, biochemical, confirmation dose response (AID 588689). It is filed as functional.
The target in another assay is Caspase-6 (Homo sapiens, UniProt P55212). As to the kind of experiment: human caspase-6 inhibitors, dose response, biochemical, VEID-R110 fluorescence, cherry-pick (AID 720632).
Assay [1] is described as follows: Luminescence-based cell-based high throughput dose response assay to identify activators of the DAF-12 from the parasite S. stercoralis (ssDAF-12). In kind it is functional.
In assay [2] the target is T1, Oxysterols receptor LXR-beta (Homo sapiens, UniProt P55055).
T1 sequence (P55055 whole entry): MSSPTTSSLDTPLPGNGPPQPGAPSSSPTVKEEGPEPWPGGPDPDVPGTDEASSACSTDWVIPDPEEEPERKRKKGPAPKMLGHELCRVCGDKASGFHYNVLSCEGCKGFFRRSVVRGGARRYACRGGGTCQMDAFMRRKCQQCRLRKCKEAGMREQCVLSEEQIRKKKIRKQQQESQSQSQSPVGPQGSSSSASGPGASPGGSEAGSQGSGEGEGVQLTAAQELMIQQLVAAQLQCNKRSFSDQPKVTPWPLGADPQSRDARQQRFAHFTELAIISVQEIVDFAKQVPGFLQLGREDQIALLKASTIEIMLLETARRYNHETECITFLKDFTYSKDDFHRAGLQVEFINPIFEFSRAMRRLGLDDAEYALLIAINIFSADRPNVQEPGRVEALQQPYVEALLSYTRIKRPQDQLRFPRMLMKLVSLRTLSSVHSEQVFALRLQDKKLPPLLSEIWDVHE
As to the kind of experiment: LXR agonists, Gal4 luciferase reporter, dose response, counter-screen for ssDAF-12 agonist project, cell-based, luminescence, HEK293, S. stercoralis campaign (AID 720737). As to conditions: read-out: IC50 (the source's name). It is filed as functional. On the technique in general: A reporter such as luciferase makes a cellular process visible.

Assay [3] deals with Metabotropic glutamate receptor 5 (Rattus norvegicus, UniProt P31424). The assay is described as follows: Identification of a glycine sulfonamide based non-MPEP site positive allosteric potentiator (PAM) of mGlu5 (calcium_assay). In kind it is functional.
Assay [4] is described as follows: IGROV1 ovarian cancer cell cytotoxicity, dose response, PAX8 inhibitor project, plate reader, dry powder samples (AID 743043). In kind it is functional, cell-based. As to conditions: IGROV-1.
Assay [5] can be described thus: PAX5 activity inhibitors, dose response, selectivity assay for PAX8 inhibitor project, cell-based, plate reader, dry powder samples (AID 743047).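 Further: HEK293 cells carrying a Pax5 driven CD19 promoter luciferase reporter; potency of inhibitors that lower reporter luminescence.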 In kind it is functional.
Assay [6] is described as follows: PAX2 cell-based inhibition, dose response, selectivity assay for PAX8 inhibitor project, plate reader, dry powder samples (AID 743048).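 Further: HEK293 cells carrying a WT1 promoter luciferase reporter driven by expressed Pax2; potency is for inhibition of Pax2 driven reporter signal.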 It is filed as functional.
Assay [7] can be described thus: cytotoxicity in COV434 cells, dose response, cytotoxicity control for PAX8 inhibitor project, cell-based, plate reader, dry powder, SA7 (AID 743145). In kind it is functional.
Assay [8] in a line: cytotoxicity dependent on PAX8, dose response, cell-based, plate reader, dry powder (AID 743049). In kind it is functional.
Assay [9] is described as follows: NIH:OVCAR-3 ovarian cancer cell cytotoxicity, dose response, PAX8 inhibitor project, plate reader, dry powder samples (AID 743044). It is filed as functional, cell-based.
A short description of assay [10]: cytotoxicity in OV-90 ovarian cancer cells, dose response, PAX8 inhibitor project, cell-based, plate reader, dry powder, SA8 (AID 743149). It is filed as functional.
The next assay addresses T2, Protein Tat (Human immunodeficiency virus type 1 group M subtype B (isolate HXB2)(HIV-1), UniProt P04608).
T2 sequence (P04608 whole entry): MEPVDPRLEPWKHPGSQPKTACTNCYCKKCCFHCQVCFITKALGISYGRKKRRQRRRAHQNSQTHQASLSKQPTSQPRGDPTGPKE
In kind it is functional.

Assay [11] is described as follows: inhibitors of Vif binding to APOBEC3G peptide, primary screen, biochemical, TR-FRET, GST-Vif 1-94, biotin-A3G peptide, dose response retest (AID 1117319).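 Further: TR-FRET signal of purified GST-Vif binding a biotinylated A3G peptide; inhibitors lower the FRET signal by blocking Vif and A3G binding.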 It is filed as functional.
For assay [12], the target named is Disintegrin and metalloproteinase domain-containing protein 17 (Homo sapiens, UniProt P78536). The assay is described as follows: exosite inhibitors of ADAM17, dose response, biochemical (AID 743260).
The nature of assay [13]: ADAM10 protease inhibitors, dose response, selectivity assay for ADAM17 exosite inhibitor project, biochemical, FRET peptide substrate, recombinant human ADAM10 (AID 743259).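 Further: ADAM10 enzyme cleaving a FRET peptide substrate.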
The nature of assay [14]: cytotoxicity in HPDE-C7 cells, cell-based, fluorescence, HTS (AID 430). To be noted: Homo sapiens. In kind it is functional.
Assay [15] addresses T3, Mannose-6-phosphate isomerase (Homo sapiens, UniProt P34949).
T3 sequence (P34949 whole entry): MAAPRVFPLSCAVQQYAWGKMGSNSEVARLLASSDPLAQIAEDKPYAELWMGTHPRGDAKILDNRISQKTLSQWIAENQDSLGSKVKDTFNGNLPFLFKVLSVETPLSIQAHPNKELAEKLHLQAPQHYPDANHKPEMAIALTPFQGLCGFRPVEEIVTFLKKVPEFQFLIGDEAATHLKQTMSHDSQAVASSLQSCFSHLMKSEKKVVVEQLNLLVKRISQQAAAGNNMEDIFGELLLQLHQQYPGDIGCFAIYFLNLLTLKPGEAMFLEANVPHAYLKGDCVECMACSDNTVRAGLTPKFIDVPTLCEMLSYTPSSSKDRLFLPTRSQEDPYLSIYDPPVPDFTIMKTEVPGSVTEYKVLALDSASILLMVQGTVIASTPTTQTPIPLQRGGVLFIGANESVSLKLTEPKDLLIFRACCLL
The assay is described as follows: human PMI inhibitors, high substrate, primary screen, biochemical, fluorescence intensity, high mannose 6-phosphate (AID 1220).

Assay [16] in a line: cytotoxicity in KRAS-transformed pancreatic duct cells, primary screen, cell-based, fluorescence, HTS (AID 431).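 Further: cell line used: HPDE-C7K.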 It is filed as functional. To be noted: Homo sapiens.
A short description of assay [17]: cytotoxicity in OVCAR8 ovarian cancer cells, dose response, PAX8 project, cell-based, plate reader, dry powder samples (AID 743197). It is filed as functional. As to conditions: OVCAR-8.
Assay [18] is described as follows: non-specific cell cytotoxicity, dose response, cytotoxicity control for PAX8 inhibitor project, plate reader, dry powder samples (AID 743021). It is filed as functional, cell-based.
The nature of assay [19]: A2780 ovarian cancer cell cytotoxicity, dose response, cytotoxicity control, plate reader, dry powder samples (AID 743046). In kind it is functional, cell-based.
Assay [20] can be described thus: IOSE-T80 ovarian epithelial cell cytotoxicity, dose response, cytotoxicity control for PAX8 inhibitor project, plate reader, dry powder samples (AID 743045). In kind it is functional, cell-based.
The target in another assay is Paired box protein Pax-8 (Homo sapiens, UniProt Q06710). As to the kind of experiment: inhibitors of PAX8-driven TPO luciferase reporter, dose response, RMG-I cells, cherry-pick (AID 687027).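 Further: luciferase reporter driven by Pax8 target thyroperoxidase promoter measured by SteadyGlo luminescence.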 In kind it is functional, cell-based.
Assay [21] is described as follows: P. falciparum late gametocyte killing, dose response, luminescence (AID 1117278).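 Further: gametocytes exposed to compound for 24 hours.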 In kind it is functional, cell-based.
Assay [22] in a line: Jurkat T cell cytotoxicity, dose response, cytotoxicity control for P. falciparum gametocyte viability project, luminescence (AID 1117277).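 Further: potency reflects loss of cellular ATP meaning fewer viable cells.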 It is filed as functional, cell-based.
Assay [23] concerns the target NAD-dependent protein deacylase sirtuin-5, mitochondrial (Homo sapiens, UniProt Q9NXA8). The assay is described as follows: SIRT5 desuccinylase inhibitors, dose response, biochemical, fluorescence imaging, cherry-pick, set 5 (AID 720591).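 Further: desuccinylation of succinyl peptide AMC substrate read as fluorescence after trypsin release; potency of inhibitors that lower fluorescence and may act on trypsin instead.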

Structures are written as SMILES. Active and inactive are the calls of the source.

Metabotropic glutamate receptor 5, sequence (P31424 whole entry): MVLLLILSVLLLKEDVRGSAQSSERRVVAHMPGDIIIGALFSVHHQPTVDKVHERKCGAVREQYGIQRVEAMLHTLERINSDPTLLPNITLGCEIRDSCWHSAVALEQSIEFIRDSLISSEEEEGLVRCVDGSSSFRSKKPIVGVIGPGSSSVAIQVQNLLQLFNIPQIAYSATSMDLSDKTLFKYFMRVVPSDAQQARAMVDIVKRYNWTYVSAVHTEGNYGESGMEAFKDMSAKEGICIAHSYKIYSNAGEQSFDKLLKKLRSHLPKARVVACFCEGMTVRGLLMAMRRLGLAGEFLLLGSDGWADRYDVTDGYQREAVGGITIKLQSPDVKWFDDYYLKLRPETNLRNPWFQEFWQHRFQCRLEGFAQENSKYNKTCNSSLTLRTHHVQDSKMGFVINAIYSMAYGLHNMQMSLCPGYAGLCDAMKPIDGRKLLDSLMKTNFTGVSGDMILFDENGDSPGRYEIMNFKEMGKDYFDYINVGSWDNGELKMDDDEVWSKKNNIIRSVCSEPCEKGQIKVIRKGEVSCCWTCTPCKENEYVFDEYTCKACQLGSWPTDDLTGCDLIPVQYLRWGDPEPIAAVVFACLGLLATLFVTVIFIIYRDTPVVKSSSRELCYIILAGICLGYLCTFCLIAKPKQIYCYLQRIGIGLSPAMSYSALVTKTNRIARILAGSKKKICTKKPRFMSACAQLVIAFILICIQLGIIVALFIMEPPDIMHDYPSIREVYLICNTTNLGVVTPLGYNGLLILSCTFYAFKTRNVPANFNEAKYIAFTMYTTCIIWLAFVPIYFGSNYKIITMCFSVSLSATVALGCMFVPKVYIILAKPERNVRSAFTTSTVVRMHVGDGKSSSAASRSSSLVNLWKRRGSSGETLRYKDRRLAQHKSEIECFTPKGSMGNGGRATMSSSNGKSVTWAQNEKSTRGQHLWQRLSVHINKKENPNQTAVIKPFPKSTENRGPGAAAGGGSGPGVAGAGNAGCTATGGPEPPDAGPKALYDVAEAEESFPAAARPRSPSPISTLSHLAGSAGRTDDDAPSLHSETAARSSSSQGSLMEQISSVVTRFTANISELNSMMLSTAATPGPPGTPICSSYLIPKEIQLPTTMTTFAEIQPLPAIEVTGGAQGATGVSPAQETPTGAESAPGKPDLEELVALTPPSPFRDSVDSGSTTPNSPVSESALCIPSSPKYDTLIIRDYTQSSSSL
NAD-dependent protein deacylase sirtuin-5, mitochondrial, sequence (Q9NXA8 whole entry): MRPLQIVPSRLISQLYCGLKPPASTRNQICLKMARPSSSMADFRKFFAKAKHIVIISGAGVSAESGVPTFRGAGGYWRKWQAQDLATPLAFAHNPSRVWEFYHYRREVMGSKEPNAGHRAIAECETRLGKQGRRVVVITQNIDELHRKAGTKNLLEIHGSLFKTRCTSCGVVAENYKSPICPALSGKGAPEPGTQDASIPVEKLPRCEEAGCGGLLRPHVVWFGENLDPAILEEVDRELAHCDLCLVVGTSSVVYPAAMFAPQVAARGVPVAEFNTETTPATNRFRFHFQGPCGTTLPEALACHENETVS
Disintegrin and metalloproteinase domain-containing protein 17, sequence (P78536 whole entry, the tested form may be a part): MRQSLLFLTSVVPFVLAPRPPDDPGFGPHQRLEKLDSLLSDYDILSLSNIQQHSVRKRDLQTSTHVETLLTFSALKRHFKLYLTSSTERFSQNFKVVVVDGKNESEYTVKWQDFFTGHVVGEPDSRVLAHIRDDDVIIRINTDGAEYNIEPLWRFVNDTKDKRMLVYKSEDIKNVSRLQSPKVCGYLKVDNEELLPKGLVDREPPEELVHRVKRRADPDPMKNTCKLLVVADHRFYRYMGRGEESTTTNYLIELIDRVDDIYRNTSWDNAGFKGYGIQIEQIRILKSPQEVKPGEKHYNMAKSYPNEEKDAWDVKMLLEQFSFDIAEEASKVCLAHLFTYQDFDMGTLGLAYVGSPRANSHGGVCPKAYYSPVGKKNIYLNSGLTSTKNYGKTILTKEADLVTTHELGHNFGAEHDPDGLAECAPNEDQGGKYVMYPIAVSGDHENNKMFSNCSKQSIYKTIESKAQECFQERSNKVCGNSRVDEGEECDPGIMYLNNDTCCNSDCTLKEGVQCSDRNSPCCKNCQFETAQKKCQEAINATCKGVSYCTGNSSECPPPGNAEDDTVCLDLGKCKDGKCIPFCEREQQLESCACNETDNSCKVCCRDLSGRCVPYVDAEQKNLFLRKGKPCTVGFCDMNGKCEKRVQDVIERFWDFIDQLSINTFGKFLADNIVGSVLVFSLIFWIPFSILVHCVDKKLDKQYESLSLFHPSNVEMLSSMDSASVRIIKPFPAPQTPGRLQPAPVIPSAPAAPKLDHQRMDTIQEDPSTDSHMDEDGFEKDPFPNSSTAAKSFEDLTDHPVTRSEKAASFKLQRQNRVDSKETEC
Caspase-6, sequence (P55212 24-179 limits assumed): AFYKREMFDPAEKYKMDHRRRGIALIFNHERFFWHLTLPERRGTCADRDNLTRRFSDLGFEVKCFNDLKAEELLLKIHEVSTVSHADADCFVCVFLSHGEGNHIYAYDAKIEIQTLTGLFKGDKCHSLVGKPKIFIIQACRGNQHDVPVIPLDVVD
Caspase-6, sequence (P55212 194-293 limits assumed): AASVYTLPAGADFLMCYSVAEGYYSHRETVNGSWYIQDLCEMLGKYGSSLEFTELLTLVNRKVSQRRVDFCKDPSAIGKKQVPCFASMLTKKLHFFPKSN
Paired box protein Pax-8, sequence (Q06710 whole entry): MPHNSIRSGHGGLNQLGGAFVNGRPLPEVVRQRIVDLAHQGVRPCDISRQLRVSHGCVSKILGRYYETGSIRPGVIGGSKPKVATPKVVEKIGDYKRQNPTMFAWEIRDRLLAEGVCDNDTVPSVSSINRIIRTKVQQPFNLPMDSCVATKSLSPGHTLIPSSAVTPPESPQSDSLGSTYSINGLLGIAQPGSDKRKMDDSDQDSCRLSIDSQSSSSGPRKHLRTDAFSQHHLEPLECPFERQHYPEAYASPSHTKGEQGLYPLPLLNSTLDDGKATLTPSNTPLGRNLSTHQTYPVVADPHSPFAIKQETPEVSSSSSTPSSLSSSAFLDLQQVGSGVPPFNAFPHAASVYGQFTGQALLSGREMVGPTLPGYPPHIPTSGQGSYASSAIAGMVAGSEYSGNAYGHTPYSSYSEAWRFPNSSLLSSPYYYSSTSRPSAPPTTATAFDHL
Genome polyprotein, sequence (P29990 2492-3391 limits assumed): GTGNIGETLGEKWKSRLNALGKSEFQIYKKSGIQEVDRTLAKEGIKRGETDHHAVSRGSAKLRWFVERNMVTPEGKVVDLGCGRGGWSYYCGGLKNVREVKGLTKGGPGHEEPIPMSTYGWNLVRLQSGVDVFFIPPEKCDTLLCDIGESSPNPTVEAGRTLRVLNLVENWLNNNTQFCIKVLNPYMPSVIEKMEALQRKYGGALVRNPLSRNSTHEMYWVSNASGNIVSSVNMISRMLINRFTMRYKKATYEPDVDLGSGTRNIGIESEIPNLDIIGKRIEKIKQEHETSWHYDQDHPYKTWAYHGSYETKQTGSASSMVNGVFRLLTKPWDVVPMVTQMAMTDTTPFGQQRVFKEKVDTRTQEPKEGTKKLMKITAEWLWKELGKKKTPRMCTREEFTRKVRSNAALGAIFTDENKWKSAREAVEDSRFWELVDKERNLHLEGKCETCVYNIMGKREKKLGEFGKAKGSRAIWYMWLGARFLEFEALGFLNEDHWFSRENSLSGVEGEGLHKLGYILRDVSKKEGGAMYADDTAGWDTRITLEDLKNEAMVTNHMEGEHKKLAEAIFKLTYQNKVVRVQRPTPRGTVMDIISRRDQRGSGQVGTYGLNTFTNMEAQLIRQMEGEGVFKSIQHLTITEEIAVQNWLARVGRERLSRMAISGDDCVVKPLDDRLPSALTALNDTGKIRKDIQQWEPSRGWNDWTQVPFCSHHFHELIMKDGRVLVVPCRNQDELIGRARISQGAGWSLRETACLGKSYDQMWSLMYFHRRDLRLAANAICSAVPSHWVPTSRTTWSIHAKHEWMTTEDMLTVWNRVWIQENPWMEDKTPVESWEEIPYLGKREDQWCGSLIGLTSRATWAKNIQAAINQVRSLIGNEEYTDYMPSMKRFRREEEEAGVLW

For `O=C(O)c1cccc(N2C(=O)c3cc([N+](=O)[O-])cc4cc([N+](=O)[O-])cc(c34)C2=O)c1`, the IC50 (in general, the concentration that gives 50% inhibition) at Genome polyprotein was 26.7 µM (active). For the same compound, the AC50 (in general, the midpoint of the concentration-response curve, whichever way the signal moves) on Caspase-6 is 8.47 µM (active).
As to `COc1ccc(NC(=O)c2cc3ccccc3cc2OC)cc1`, the IC50 in assay [1] is > 67.5 µM (inactive). Also, in assay [2], the EC50 is > 67.5 µM (inactive).
As to `CS(=O)(=O)N1c2ccccc2CCC1C(=O)Nc1ccncc1` (centres undefined), the EC50 in [3] was 10 µM (inconclusive).
Take `COc1ccccc1C#Cc1ccc([C@H]2[C@@H](CO)N(C(=O)C3CCCC3)[C@H]2C#N)cc1`: the AC50 in assay [4] was 37.4 µM (active); in [5], 23 µM (active); in [6] it was 27.6 µM (active); in assay [7] it was > 70 µM (inactive); in assay [8], 40.7 µM (active); in [9] it was 48.3 µM (active). Also, the AC50 in assay [10] is > 70 µM (inactive).
Take `CCOc1ccc(-n2c(Cc3cc(O)nc(O)n3)nnc2SCC(N)=O)cc1`: the IC50 (on Protein Tat; in assay [11]) was > 100 µM (active) in each case.
Turning to `O=C1CC(Nc2ccc3ccccc3c2)C(=O)N1Cc1ccccc1` (centres undefined), the IC50 in assay [12] and in assay [13] was > 69.5 µM (inactive) throughout.
Turning to `O=C(CCN1CCN(c2ccccc2F)CC1)c1ccc(Br)cc1`, the EC50 in assay [14] is 7.29 µM (active); in [16], 8.84 µM (active). Besides, the IC50 in assay [15] is 38.2 µM (active).
As to `C[C@H](CO)N1C[C@H](C)[C@@H](CN(C)S(=O)(=O)c2ccc(F)cc2)OCCCC[C@H](C)Oc2ccc(NS(=O)(=O)c3ccc(Cl)cc3)cc2C1=O`, the AC50 in assay [17] was 14.9 µM (active); in assay [4] it was 35.1 µM (active); in assay [18] it was 49.2 µM (active); in assay [19] it was 23.3 µM (active); in assay [20] it was 13.1 µM (active); in assay [9], 11.9 µM (active). In addition, on Paired box protein Pax-8, the AC50 is 4.97 µM (active).
Consider `CC(C)CNC(=O)c1cccc(NC(=O)COc2ccc([N+](=O)[O-])cc2)c1`, for which the IC50 in assay [21] was > 109 µM (inactive); in [22], > 83.3 µM (inactive).
As for `COc1ccc(N(C(C)=O)c2nc3ccccc3[nH]2)cc1`, the AC50 in assay [23] was > 30 µM (inactive).

These data come from ChEMBL document CHEMBL1201862, “PubChem BioAssay data set” (2004).
